Reference: ChEMBL document CHEMBL1128430, “1,1-Bisphosphonate squalene synthase inhibitors: interplay between the isoprenoid subunit and the diphosphate surrogate” (J Med Chem, 1995)
Activity calls are given as the source filed them. No cut-off for these calls is given here.

Experiments:
Squalene synthase = biological target: T1, Squalene synthase (Rattus norvegicus, UniProt Q02769); assay: Inhibition rat liver microsomal squalene synthase
T1 sequence (Q02769 whole entry): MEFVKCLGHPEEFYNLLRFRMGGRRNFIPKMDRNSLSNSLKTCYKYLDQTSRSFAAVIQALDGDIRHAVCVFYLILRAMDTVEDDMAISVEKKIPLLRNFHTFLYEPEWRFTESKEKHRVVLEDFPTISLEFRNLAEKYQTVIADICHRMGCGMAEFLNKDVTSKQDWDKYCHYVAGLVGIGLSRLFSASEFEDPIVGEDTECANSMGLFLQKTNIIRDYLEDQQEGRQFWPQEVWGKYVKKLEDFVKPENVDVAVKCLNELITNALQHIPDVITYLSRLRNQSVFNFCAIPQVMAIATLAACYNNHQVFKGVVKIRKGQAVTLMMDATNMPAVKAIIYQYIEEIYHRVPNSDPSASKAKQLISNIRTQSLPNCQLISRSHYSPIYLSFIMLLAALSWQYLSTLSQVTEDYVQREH

[1] = biological target: T2, Squalene synthase (Rattus norvegicus) (UniProt Q02769); settings: 30 mg/kg
T2 sequence (whole entry): T1 sequence (Q02769 whole entry)

[2] = biological target: T2, Squalene synthase (Rattus norvegicus); assay: Effective dose to inhibit rat liver microsomal Squalene synthase was determined by peroral administration at a dose of 15 mg/kg; inactive; type: organism-based; design: dose 15 mg/kg
[3] = biological target: T2, Squalene synthase (Rattus norvegicus); assay: Effective dose to inhibit rat liver microsomal Squalene Synthase was determined by intravenous administration
[4] = biological target: T2, Squalene synthase (Rattus norvegicus); assay: Effective dose to inhibit rat liver microsomal Squalene Synthase was determined by peroral administration at 15 mg/kg dose; type: organism-based; design: dose 15 mg/kg
[5] = biological target: T2, Squalene synthase (Rattus norvegicus); assay: Effective dose to inhibit rat liver microsomal Squalene Synthase was determined by peroral administration
[6] = biological target: T2, Squalene synthase (Rattus norvegicus); assay: Effective dose to inhibit rat liver microsomal Squalene Synthase was determined by peroral administration at a dose of 30 mg/kg; In active; type: organism-based; design: dose 30 mg/kg

| SMILES | IC50 (Squalene synthase) | other results |
| --- | --- | --- |
| CC(C)=CCC/C(C)=C/CCCCCCC(P(=O)(O)O)P(=O)(O)O | 17.6 nM | inhibition [1]: 25% |
| CC(C)=CCC/C(C)=C/CC/C(C)=C/CC(P(C)(=O)O)P(=O)(O)O (configuration not stated) | 106 nM | – |
| CC(C)=CCC/C(C)=C/CC(P(=O)(O)O)P(=O)(O)O | 35.5 nM | ED50 [2]: inactive |
| CC(C)=CCC/C(C)=C/CC/C(C)=C/CCCC(P(=O)(O)O)P(=O)(O)CO (configuration not stated) | 4.7 nM | – |
| O=P(O)(O)C(CCCc1ccc(-c2ccccc2)cc1)P(=O)(O)CO (configuration not stated) | 23.9 nM | – |
| COCP(=O)(O)C(CCC/C=C(\C)CCC=C(C)C)P(=O)(O)O (configuration not stated) | 13.1 nM | – |
| CC(C)=CCCCC(P(=O)(O)O)P(=O)(O)O | 6600 nM | – |
| CC(C)=CCC/C(C)=C/CC/C(C)=C/CCCCCCC(P(=O)(O)O)P(=O)(O)O | 11.8 nM | ED50 [3]: 0.13 mg/kg; inhibition [4]: 26% |
| CC(C)=CCC/C(C)=C/CC/C(C)=C/CCCCC(P(C)(=O)O)P(=O)(O)O (configuration not stated) | 6.5 nM | – |
| CC(C)=CCC/C(C)=C/CCCCC(P(C)(=O)O)P(=O)(O)O (configuration not stated) | 605 nM | – |
| COCP(=O)(O)C(CCCc1ccc(-c2ccccc2)cc1)P(=O)(O)O (configuration not stated) | 14.8 nM | – |
| CC(C)=CCC/C(C)=C/CC(P(C)(=O)O)P(=O)(O)O (configuration not stated) | 8600 nM | – |
| CC(C)=CCC/C(C)=C/CCCCCCCC(P(C)(=O)O)P(=O)(O)O (configuration not stated) | 8.7 nM | – |
| CC(C)=CCC/C(C)=C/CCCC([PH](=O)O)P(=O)(O)O (configuration not stated) | 4 nM | – |
| CC(C)=CCC/C(C)=C/CCCC(P(=O)(O)O)P(=O)(O)CO (configuration not stated) | 38.7 nM | – |
| CC(C)=CCC/C(C)=C/CCCC(P(C)(=O)O)P(=O)(O)O (configuration not stated) | 81 nM | – |
| O=C(O)C(CCCc1ccc(-c2ccccc2)cc1)P(=O)(O)O (configuration not stated) | 2200 nM | – |
| CC(C)=CCC/C(C)=C/CC/C(C)=C/CCCC(C(=O)O)P(=O)(O)O (configuration not stated) | 880 nM | – |
| COCP(=O)(O)C(CCC/C=C(\C)CC/C=C(\C)CCC=C(C)C)P(=O)(O)O (configuration not stated) | 6.5 nM | – |
| CC(C)=CCC/C(C)=C/CCC(P(=O)(O)O)P(=O)(O)O | 77.7 nM | – |
| CC(C)=CCC/C(C)=C/CCCCCC(P(C)(=O)O)P(=O)(O)O (configuration not stated) | 30.7 nM | – |
| CP(=O)(O)C(CCCc1ccc(-c2ccccc2)cc1)P(=O)(O)O (configuration not stated) | 490 nM | – |
| CC(C)=CCC/C(C)=C/CC/C(C)=C/CC(P(=O)(O)O)P(=O)(O)O | 32.4 nM | – |
| CC(C)=CCC/C(C)=C/CCCCC(P(=O)(O)O)P(=O)(O)O | 2.6 nM | – |
| CC(C)=CCC/C(C)=C/CCCCCC(P(=O)(O)O)P(=O)(O)O | 2.5 nM | ED50 [3]: 0.04 mg/kg; ED50 [5]: 1.1 mg/kg |
| CC(C)=CCC/C(C)=C/CCCC(C(=O)O)P(=O)(O)O (configuration not stated) | 1650 nM | – |
| CC(C)=CCC/C(C)=C/CCCCCCCC(P(=O)(O)O)P(=O)(O)O | 4.2 nM | ED50 [3]: 0.05 mg/kg; ED50 [6]: inactive |
| CC(C)=CCC/C(C)=C/CC/C(C)=C/CCCC(P(C)(=O)O)P(=O)(O)O (configuration not stated) | 12.9 nM | – |
| CC(C)=CCC/C(C)=C/CCCCCCC(P(C)(=O)O)P(=O)(O)O (configuration not stated) | 374 nM | – |
